Measured values taken from article PMC7993727, “Discovery of a novel AR/HDAC6 dual inhibitor for prostate cancer treatment” (Aging (Albany NY), 2021).
pIC50: −log10 of the molar value.

Experiments:
AR-LBD = assay: AR competitive binding, fluorescence polarization
Protocol: To evaluate the AR inhibition activities of Zeta55, an AR luciferase activity assay was performed (Table 1 and Supplementary Figure 1). […]. To evaluate the HDAC inhibition activities of Zeta55, fluorescent-based HDAC assays were performed (Table 1 and Supplementary Figure 3). […]. Both compounds seem ineffective against HDAC4.
Supplementary Figure 1. […]
polarization assay. Test compounds were incubated with recombinant AR-LBD (GST) and the fluorescence polarization (mP) was measured
at an excitation wavelength of 485 nm and emission wavelength of 535 nm. […]

AR = molecular target: T1, AR (Homo sapiens, UniProt P10275); format: cell-based; settings: VCaP cells, 10% FBS, 10 μM, 24 hours
T1 construct: The VCaP cells were transfected with MMTV-LUC for 24 hours; endogenous in cells; host or cells: VCaP
T1 sequence (P10275 1-920): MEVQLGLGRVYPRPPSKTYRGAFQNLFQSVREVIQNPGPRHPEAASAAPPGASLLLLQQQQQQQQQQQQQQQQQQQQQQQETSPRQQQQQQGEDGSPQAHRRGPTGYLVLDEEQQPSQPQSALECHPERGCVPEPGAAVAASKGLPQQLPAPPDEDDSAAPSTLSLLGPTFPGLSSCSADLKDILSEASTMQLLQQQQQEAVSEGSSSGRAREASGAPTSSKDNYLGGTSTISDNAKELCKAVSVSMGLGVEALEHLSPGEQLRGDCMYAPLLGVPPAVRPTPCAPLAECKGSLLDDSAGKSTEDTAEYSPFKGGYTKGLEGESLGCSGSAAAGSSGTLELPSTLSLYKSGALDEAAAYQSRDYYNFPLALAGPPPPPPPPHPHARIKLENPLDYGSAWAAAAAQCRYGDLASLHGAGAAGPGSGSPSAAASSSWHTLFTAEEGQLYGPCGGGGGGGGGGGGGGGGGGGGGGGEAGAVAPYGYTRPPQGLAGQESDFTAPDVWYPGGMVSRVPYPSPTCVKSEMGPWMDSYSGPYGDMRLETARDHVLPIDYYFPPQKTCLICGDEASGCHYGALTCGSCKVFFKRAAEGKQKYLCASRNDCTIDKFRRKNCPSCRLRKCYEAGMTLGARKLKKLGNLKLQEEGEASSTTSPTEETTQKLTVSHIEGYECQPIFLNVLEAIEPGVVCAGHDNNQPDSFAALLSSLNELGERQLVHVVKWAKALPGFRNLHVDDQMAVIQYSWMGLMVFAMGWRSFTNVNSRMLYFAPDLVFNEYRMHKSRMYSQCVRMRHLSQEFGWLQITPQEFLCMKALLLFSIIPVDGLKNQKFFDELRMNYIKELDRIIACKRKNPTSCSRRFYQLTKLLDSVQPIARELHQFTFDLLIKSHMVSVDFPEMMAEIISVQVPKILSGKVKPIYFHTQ
Protocol: Cells were fixed with 4% paraformaldehyde for 15 minutes at room temperature, permeabilized with immunostaining permeate for 10 minutes and blocked with 5% BSA containing 1% Tween-20 for 1 hour. After overnight Immunostain with AR Rabbit monoclonal antibody (1:400;CST,5153S) at 4° C, a Cy3 conjugated Goat Anti-Rabbit IgG (1:300; Servicebio, GB21303) reacted for 1 hour. DAPI (4’,6-diamidine-2’-phenylindole, Servicebio, G1012) stained the nuclear to bule for 10 minutes in the dark. Washing three times with PBS between each step. Immunofluorescence images were acquired by fluorescence microscopy using a NIKON ECLIPSE CI microscope (Nikon Corporation; magnification).

HDAC1 = molecular target: T2, HDAC1 (Homo sapiens, UniProt Q13547); assay: fluorescent-based HDAC assay; format: biochemical
T2 construct: purchased BPS Bioscience
T2 sequence (Q13547 whole entry): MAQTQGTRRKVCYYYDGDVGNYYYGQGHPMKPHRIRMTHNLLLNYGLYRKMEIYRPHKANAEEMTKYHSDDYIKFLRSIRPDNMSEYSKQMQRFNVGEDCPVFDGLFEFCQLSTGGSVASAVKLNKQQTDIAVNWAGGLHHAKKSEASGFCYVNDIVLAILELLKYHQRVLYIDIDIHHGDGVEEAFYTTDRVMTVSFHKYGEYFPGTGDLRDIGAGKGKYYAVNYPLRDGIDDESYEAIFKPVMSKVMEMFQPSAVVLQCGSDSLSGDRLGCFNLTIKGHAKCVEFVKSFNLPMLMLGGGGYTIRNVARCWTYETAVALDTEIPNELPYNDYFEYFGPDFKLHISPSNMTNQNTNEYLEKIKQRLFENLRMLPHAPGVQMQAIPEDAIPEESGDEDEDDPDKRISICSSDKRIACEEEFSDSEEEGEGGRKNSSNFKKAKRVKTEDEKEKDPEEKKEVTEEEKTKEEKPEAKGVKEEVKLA
Protocol: (§1) Commercial fluorescent assay kits were used to measure the activities of HDAC (BPS Bioscience). Briefly, the tested compounds were diluted in DMSO into a 96-well plate, and then assay buffer, HDAC, and substrate were added. The plate was incubated at 37° C for 30 minutes for enzymatic reactions, and the developer was added. After 10 minutes of incubation, the generated fluorescence was measured at an excitation of 380 nm and an emission of 460 nm.

HDAC3 = molecular target: T3, HDAC3 (Homo sapiens, UniProt O15379); assay: fluorescent-based HDAC assay; format: biochemical
T3 construct: purchased BPS Bioscience
T3 sequence (O15379 whole entry): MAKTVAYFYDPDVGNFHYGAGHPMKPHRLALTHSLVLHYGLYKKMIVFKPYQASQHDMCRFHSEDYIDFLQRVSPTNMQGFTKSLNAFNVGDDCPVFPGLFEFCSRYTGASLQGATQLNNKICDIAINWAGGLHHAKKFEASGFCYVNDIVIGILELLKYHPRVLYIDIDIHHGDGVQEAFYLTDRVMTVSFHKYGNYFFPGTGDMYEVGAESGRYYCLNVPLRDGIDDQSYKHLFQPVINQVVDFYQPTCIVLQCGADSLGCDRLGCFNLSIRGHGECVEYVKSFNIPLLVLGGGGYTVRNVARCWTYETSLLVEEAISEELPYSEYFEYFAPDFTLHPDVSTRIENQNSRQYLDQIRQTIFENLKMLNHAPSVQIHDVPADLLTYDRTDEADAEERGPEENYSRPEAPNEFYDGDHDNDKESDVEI
T3 sequence (Q9Y618 395-489 partner limits assumed): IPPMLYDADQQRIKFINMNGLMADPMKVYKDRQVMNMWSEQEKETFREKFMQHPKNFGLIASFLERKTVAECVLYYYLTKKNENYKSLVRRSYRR
Protocol: as §1

HDAC4 = molecular target: T4, HDAC4 (Homo sapiens, UniProt P56524); assay: fluorescent-based HDAC assay; format: biochemical
T4 construct: purchased BPS Bioscience
T4 sequence (P56524 whole entry): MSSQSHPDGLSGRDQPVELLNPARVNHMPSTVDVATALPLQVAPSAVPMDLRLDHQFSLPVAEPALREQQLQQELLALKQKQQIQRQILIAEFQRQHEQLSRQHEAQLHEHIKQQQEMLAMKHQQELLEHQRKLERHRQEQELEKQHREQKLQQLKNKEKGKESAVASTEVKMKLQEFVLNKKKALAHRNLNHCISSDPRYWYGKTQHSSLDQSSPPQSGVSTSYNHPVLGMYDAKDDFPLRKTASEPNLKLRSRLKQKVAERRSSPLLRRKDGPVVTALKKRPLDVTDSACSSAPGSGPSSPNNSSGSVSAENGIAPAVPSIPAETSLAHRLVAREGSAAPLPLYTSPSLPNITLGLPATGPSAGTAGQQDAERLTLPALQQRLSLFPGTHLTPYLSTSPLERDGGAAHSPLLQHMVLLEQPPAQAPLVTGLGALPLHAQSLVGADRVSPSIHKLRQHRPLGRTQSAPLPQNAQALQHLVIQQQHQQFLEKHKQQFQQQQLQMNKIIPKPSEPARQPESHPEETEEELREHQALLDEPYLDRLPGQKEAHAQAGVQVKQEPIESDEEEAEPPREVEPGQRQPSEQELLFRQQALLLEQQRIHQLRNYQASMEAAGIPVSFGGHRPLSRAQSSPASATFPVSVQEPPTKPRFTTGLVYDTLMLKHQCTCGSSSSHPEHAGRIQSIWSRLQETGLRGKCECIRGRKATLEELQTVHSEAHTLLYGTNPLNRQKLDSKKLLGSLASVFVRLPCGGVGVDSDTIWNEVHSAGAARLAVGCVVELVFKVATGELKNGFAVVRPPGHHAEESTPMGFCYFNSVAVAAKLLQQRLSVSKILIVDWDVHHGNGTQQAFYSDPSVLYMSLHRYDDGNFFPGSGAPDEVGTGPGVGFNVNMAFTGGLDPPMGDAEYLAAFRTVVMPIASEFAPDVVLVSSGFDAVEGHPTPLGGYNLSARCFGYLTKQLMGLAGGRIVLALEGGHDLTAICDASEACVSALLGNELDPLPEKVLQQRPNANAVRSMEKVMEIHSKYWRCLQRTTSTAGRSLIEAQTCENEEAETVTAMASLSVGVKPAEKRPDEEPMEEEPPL
Protocol: as §1

N#Cc1ccc(N2C(=O)C3(CCC3)N(c3ccc(C(=O)NO)c(F)c3)C2=S)cc1C(F)(F)F [Zeta55]
AR binding affinity relative to MDV3100 (AR-LBD): 60%
subcellular localization of AR (AR): distributed in both cytoplasm and nucleus
pIC50 (HDAC1): < 4.70
pIC50 (HDAC3): < 4.70
pIC50 (HDAC4): < 4.70
